Residues, ends and D or L forms follow the SMILES beside them. *: point of attachment. Tos = Cc1ccc(S(=O)(=O)*)cc1 Bounds are passed on as bounds.

In the case of `CCc1cc(OCc2cccc(C(=O)OC)c2)cc(O)c1C(C)=O`, the melting point is 132 °C.

In turn, `COc1cc(OC)nc(NC(=O)NS(=O)(=O)Nn2cccc2C(=O)C(F)(F)F)n1` had a melting point of 145 to 147 °C.

Molecule `CN(C)n1c(S)nc2ccccc2c1=O` returned a melting point of 245 to 249 °C.

With `O=C(N[C@@H]1CN(C2CCCCC2)C[C@H]1O)c1ccc(Cl)cc1` (relative stereo), the melting point fell in the range of 158 to 160 °C.

In the case of `Cn1nc(C(=O)NCc2ccc(Cl)cc2)c(=O)c2cc(C#CCO)cnc21`, the melting point was in the range of 201 to 206 °C.

Consider `N#Cc1c(Cl)ccc2[nH]c(Sc3cccc4c(=O)cc[nH]c34)nc12`, for which the melting point amounted to 376 °C.

The molecule `COc1ccc(C)cc1NC(=O)Nc1ccc(N2CCN(C(=O)Nc3ccc(OCC(O)CO)cc3Cl)CC2)cc1` (stereo not drawn) displayed a melting point of 134 to 136 °C.

Take `C=CCc1cc(C)c2c(c1O)C(C)(C)C(=O)N2`: the melting point was in the range of 141 to 143 °C.

On to `CCCCc1nc(C(O)(C(C)C)C(C)C)c(C(N)=O)n1Cc1ccc(-c2ccccc2C(=O)O)cc1`, for which the melting point was 178 to 181 °C.

Molecule `CN1C(=O)CC[C@]2(C)c3ccc(-c4cc(C(F)(F)F)nc5c(C(F)(F)F)cccc45)cc3CC[C@@H]12` came in with a melting point of 100 to 106 °C.

As to `O=C(O[C@@H]1CCN(CC#CCN2CCCC2)C1=O)c1ccc([N+](=O)[O-])cc1`, the melting point is 89 to 90 °C.

`Cc1c(Cc2ccccc2)c2c(c(C)c1NC(=O)CC(C)(C)C)C(c1ccc(C(C)C)cc1)CO2` (stereo not drawn) displayed a melting point of 153 to 154 °C.

`Cc1c(CC(C)(C)C(=O)O)n(Cc2ccc(Cl)cc2)c2ccc(OCc3ccc(-c4ccccc4)cn3)cc12` registered a melting point of 177 to 179 °C.

As for `CN(C)CCNC(=O)c1cn(C)c(=O)c2cc3ccccc3nc12`, the melting point lay within 192 to 194 °C.

For the molecule `O=C1CCn2c(-c3ccccc3)nc3c(Cl)ccc1c32`, the melting point was in the range of 206 to 209 °C.

For `CC(CS)C(=O)NC(CC(=O)O)C(=O)O` (stereo not drawn), the melting point was in the range of 129 to 131 °C.

`CC(=O)Oc1ccc(Cc2n[nH]c3c2c(=O)n(-c2ccccc2)c2ncccc32)cc1` had a melting point of 278 to 282 °C.

As for `Cc1cc(Cl)cc(C(=O)Nc2ccc(Cl)cn2)n1`, the melting point is 151 °C.

`O=C1OC(CCCN2CCN(c3ncccn3)CC2)CN1c1ccccc1` (stereo not drawn) showed a melting point of 92 to 98 °C.

`CCOC(=O)c1cn(Cc2ccccc2)nc1OCc1ccc(OC)c(OCc2nc(-c3ccco3)oc2C)c1` displayed a melting point of 147 to 148 °C.

As for `Cc1ccc(S(=O)(=O)N2CCC[C@H]2C(=O)N[C@@H](CCCCN)C(=O)O)cc1` (Tos-Pro-Lys-OH), the melting point is over 200 °C.

`Nc1n[nH]c(-c2cc(Cl)nc(Cl)c2)n1`: the melting point was in the range of 240 to 250 °C.

In the case of `COc1cc(C(O)P(=O)(OC)OC)cc(OC)c1OC` (stereo not drawn), the melting point lay in the range of 103 to 104 °C.

In turn, `CCOC(=O)c1cc2cccnc2n1Cc1ccccc1` came in with a melting point of 71 to 72 °C.

In the case of `CC1C(=O)CC(C)C(C#N)C1=O` (stereo not drawn), the melting point was in the range of 178 to 179 °C.

Molecule `CC(=O)OC1CCC2(C)C(CCC3C2CCC2(C)C(C(C)CCCI)CCC32)C1` (stereo not drawn) registered a melting point of 140 to 146 °C.

Molecule `Cc1ccccc1NC(=O)CN1C[C@@H](C)N(c2ncnc3sccc23)[C@@H](C)C1` came in with a melting point of 174 to 175 °C.

For `CC(C#CC1CC1)N(O)C(N)=O` (stereo not drawn), the melting point lay in the range of 142 to 143 °C.

Turning to `NS(=O)(=O)OCCOc1cccc(OCCOS(N)(=O)=O)c1`, the melting point lay in the range of 147 to 149 °C.

Molecule `CCCc1c(OCCCSc2c(C(C)C)nn3ccccc23)ccc(C(C)=O)c1O` showed a melting point of 95 to 95.5 °C.

On to `CC(C)(C)c1ccc2c(c1)Cc1cc(C(C)(C)C)ccc1S2`, for which the melting point lay within 152 to 154 °C.

`CN1CCN(c2cc3nc(C(C)(C)C)sc3cc2N=C=S)CC1` registered a melting point of 124 to 126 °C.

For the molecule `CC(C#N)(CNC(=O)c1nn(C2CCCCO2)cc1NC(=O)c1ccccn1)Cc1ccccc1` (stereo not drawn), the melting point was in the range of 187 to 190 °C.

For `N#CSc1ccc(N)c(Br)c1`, the melting point is 74 to 79 °C.

The molecule `C=CCC1(CC=C)c2cccc(OC)c2C(=O)c2cccc(Cl)c21` gave a melting point of 165 to 166 °C.

On to `Nc1cc(C(Cl)(Cl)Cl)ccn1`, for which the melting point was determined as 114 °C.

The molecule `COc1ccc(CS[C@@H]2C[C@@H](C(=O)OCc3ccccc3)N(S(=O)(=O)c3ccc4ccccc4c3)C2)cc1` showed a melting point of 90 to 91 °C.

As for `CN1C(=O)CC[C@]2(C)c3ccc(-c4ccc(F)c(F)c4F)cc3CC[C@@H]12`, the melting point was 100 to 102 °C.

As for `COc1cccc2c(=O)c3ccc(Cl)cc3oc12`, the melting point is 201 to 202 °C.

In turn, `COCOc1ccccc1OCBr` gave a melting point of 40 to 42 °C.

In turn, `COc1cc(-c2ccn(C)n2)cc2oc(=O)c(C)c(C)c12` showed a melting point of 135 °C.

`CC(=O)N1C(=O)C2(CC2)c2ccc(N3C(=O)C4=C(CCCC4)C3=O)cc21` returned a melting point of 237 to 238 °C.

Turning to `COc1ccc(-c2ccnc3c(C(=O)c4cccs4)cnn23)c(OC)c1`, the melting point lay in the range of 146 to 148 °C.

`O=CN1CCc2cc(OCC3CO3)ccc2C1` (stereo not drawn): the melting point fell in the range of 78 to 79 °C.

`Oc1cccc([C@H]2CCCC[C@H]2NCCCc2ccccc2)c1` (racemic) yielded a melting point of 112 to 113 °C.

As to `Cc1c(SCCCSc2ccc3ncc([N+](=O)[O-])n3n2)ccnc1CSc1ncccn1`, the melting point was 143 to 147 °C.

`CC(CC(F)(F)F)C(N)=O` (stereo not drawn) yielded a melting point of 90.5 to 91.5 °C.

Regarding `CCOc1cccnc1CSCCNC(=C[N+](=O)[O-])SC`, the melting point was in the range of 126 to 127 °C.

`CC(C)n1nc(-c2c(-c3ccccc3)nn3ccc(OCCC4CCCCC4)cc23)ccc1=O` gave a melting point of 146 to 147 °C.

`COc1ccc(C2Sc3c(ccc4ccccc34)N(CCCN(C)C)C(=O)C2OC(C)=O)cc1` (stereo not drawn) displayed a melting point of 98 to 99 °C.

`NS(=O)(=O)c1ccc(-n2nc(C(F)(F)F)c(CO)c2-c2ccccc2)cc1` showed a melting point of 179 to 180 °C.

Consider `CN1C(=O)C2(COc3cc4c(cc32)OCCO4)c2c(NC(=O)C3CC3)cccc21` (stereo not drawn), for which the melting point is 266 to 268 °C.

With `CCOC(=O)C(C)(C)N1COC(C)=C(I)C1=O`, the melting point was in the range of 85 to 87 °C.

As for `O=Cc1ccc(O)c(CP(=O)(O)O)c1`, the melting point fell in the range of 252 to 253 °C.

The molecule `CC1Cc2cc(S(=O)(=O)n3cc(-c4ccccc4)[nH]c3=O)ccc2N1C(=O)c1ccc([N+](=O)[O-])cc1` (stereo not drawn) displayed a melting point of 168 to 172 °C.

The molecule `O=C1NCN2c3ccccc3Oc3cccc1c32` had a melting point of over 300 °C.

`CCC(CC)(c1ccc(F)cc1F)c1c[nH]c2c(NS(C)(=O)=O)cccc12` came in with a melting point of 144 to 147 °C.

`Cc1cc(C)cc(Sc2c(C(C)C)c(=O)[nH]c(=O)n2CCC2C=CCC2)c1` (stereo not drawn) returned a melting point of 138 to 140 °C.

For `COCCOC1c2ccn3c(C)c(C)nc3c2NC(c2ccccc2)C1OC(=O)CCCCO[N+](=O)[O-]` (stereo not drawn), the melting point came out at 87.1 °C.

The molecule `Cc1nnc(CN2CCCC2)n1-c1ccc(Cl)cc1C(=O)c1ccccc1` came in with a melting point of 174 to 176 °C.

`COc1ccc(C2CCCN(C(=O)C(F)(F)F)C2)cc1` (stereo not drawn) gave a melting point of 88 °C.

`C[C@@H](Cn1ncc2ccc(OCCO)c(Br)c21)NC(=O)OCc1ccccc1`: the melting point lay in the range of 97 to 99 °C.

For `COc1ccc(Cc2c(N)nc(N)nc2O)cc1OC`, the melting point fell in the range of 268 to 270 °C.

In general, melting point refers to the temperature of the solid-liquid transition.

Source of the values: a melting point compilation (Tetko et al.; mined from patent text by program, amines drawn as free bases though some values may be those of a salt).
